Assay results taken from publication PMC9032385, “A2A Adenosine Receptor Antagonists: Are Triazolotriazine and Purine Scaffolds Interchangeable?” (Molecules, 2022).
pKi: −log10 of the molar value.

Assays:
PD patients = test system: PD patients; set-up: method as in PMID 26523919; conditions: two phase III trials, adjunct to levodopa in PD patients; cited from earlier work
human recombinant A3AR = target: T1, human recombinant A3AR (Homo sapiens, UniProt P0DMS8); assay: Radioligand binding at human A3AR ([3H]HEMADO displacement, CHO cell membranes); conditions: displacement of [3H]HEMADO, n = 3–5, means ± standard errors
T1 construct: expressed in transfected cells; membrane preparation
T1 sequence (P0DMS8 1-318): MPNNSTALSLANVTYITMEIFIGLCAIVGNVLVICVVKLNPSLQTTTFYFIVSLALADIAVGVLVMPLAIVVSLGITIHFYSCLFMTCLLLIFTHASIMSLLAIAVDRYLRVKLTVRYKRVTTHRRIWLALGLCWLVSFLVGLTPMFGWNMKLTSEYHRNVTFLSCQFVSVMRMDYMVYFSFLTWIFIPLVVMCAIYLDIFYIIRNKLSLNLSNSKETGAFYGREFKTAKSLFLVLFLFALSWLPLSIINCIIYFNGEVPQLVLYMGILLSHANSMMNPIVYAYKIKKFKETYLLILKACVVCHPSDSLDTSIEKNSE
Protocol: (§1) The affinities of the newly synthesized compounds 7–13 and 17–21 were determined in binding studies at human recombinant A1, A2A, and A3 ARs, stably transfected in Chinese hamster ovary (CHO) cells, using [^3H]CCPA (2-chloro-N^6-cyclopentylAdo), [^3H]NECA (5′-N-ethylcarboxamidoAdo), and [^3H]HEMADO (2-hexynyl-N^6-methylAdo) as respective radioligands. Most of the compounds were also evaluated at A2BARs in a functional study using the GloSensor cAMP assay. The results are reported in Table 1 as Ki values in nM (± standard errors). In the case of A2BARs, Ki-values were calculated from IC50-values determined by the inhibition of NECA-stimulated adenylyl cyclase activity.
(§2) Cell culture: The Chinese hamster ovary cells (CHO) stably transfected with the desired ARs were grown in DMEM/F12 medium containing 10% FBS (fetal bovine serum), 100 U/mL penicillin, 100 µg/mL streptomycin, 2.5 μg/mL amphotericin B, 1 mM sodium pyruvate, 0.1 mg/mL genetecina (G418), and incubated at 37 °C in a gaseous mixture of 5% CO2: […].
(§3) Preparation of membranes: Cell membranes for binding assays were prepared mechanically detaching the cells from the petri and suspending them in a cold hypotonic buffer (5 mM Tris/HCl, 2 mM EDTA, pH 7.4). The cell suspension was homogenized (Ultra-Turrax, 2 × 15 s at maximum speed) and the homogenate centrifuged for 10 min (4 °C) to 1000× g. The supernatant was subsequently centrifuged for 30 min (4 °C) at 100,000× g and the pellet containing the membrane proteins was re-suspended in a specific buffer for each receptor subtype (A1: 50 mM Tris/HCl, pH 7.4; A2A: 50 mM Tris/HCl, 10 mM MgCl2, pH 7.4; A3: 50 mM Tris/HCl, 10 mM MgCl2, 1 mM EDTA, pH 8.25). The amount of the protein suspension was determined according to the […] using the BCA Protein Assay Kit (Pierce), frozen in liquid nitrogen, and stored at −80 °C.
(§4) Binding assays: The dissociation constants of the radioligand (KD) were calculated through saturation assays, while the dissociation constants of the compounds under study (Ki) were determined by competition experiments. All binding data were calculated by nonlinear regression curves using the software GraphPad Prism 5 (GraphPad Software, San Diego, CA, USA). The increasing concentrations of the radioligand saturation binding ([^3H]-CCPA for the A1 receptor subtype, [^3H]-NECA for the A2A receptor subtype, and [^3H]-HEMADO for the A3 receptor) subtype were incubated in a total volume of 250 μL containing 0.2 U/mL of Ado deaminase (ADA) and 12 micrograms of membrane proteins in the specific buffer. In competition experiments for the A1 receptor subtype, each compound was added at increasing concentrations, to the well containing 1 nM of [^3H]-CCPA, to a final volume of 200 μL. The samples were left to incubate for 3 h at room temperature, filtered in a filter 96-well plate (UniFilter GF/C, Perkin-Elmer Life and Analytical Science, Boston, MA) using the FilterMate Cell Harvester (Perkin-Elmer), and washed 3 times with cold distilled water. After drying the filter plate at 40 °C for 30′, they 20 μL of scintillating liquid (Microscint-20, Perkin-Elmer) was added to each well, and then the radioactivity was quantized with the MicroBeta2 Plate Counter (Perkin-Elmer). The conditions for binding experiments at A2A and A3 receptor subtypes were essentially the same as for the A1AR using [^3H]-NECA (N-ethylcarboxyamideAdo) at a concentration of 10 nM and [^3H]-HEMADO (2-(1-hexyne)-N^6-methylAdo) at a concentration of 1 nM as radioligands, respectively. The samples were incubated with 12 micrograms of protein for 3 h at room temperature and filtered as described above.
(§5) The non-specific binding was determined in the presence of 1 mM theophylline for the A1AR, or 100 µM R-PIA (N^6-(1-methyl-2-phenylethyl)Ado) for the A2A and A3 receptors.

A2BAR = target: T2, A2BAR (Homo sapiens, UniProt P29275); assay: Functional study at A2BAR (GloSensor cAMP assay; inhibition of NECA-stimulated adenylyl cyclase activity); assay type: cell-based; conditions: Ki calculated from IC50 of inhibition of NECA-stimulated adenylyl cyclase activity, CHO cells
T2 construct: expressed in transfected cells
T2 sequence (P29275 1-332): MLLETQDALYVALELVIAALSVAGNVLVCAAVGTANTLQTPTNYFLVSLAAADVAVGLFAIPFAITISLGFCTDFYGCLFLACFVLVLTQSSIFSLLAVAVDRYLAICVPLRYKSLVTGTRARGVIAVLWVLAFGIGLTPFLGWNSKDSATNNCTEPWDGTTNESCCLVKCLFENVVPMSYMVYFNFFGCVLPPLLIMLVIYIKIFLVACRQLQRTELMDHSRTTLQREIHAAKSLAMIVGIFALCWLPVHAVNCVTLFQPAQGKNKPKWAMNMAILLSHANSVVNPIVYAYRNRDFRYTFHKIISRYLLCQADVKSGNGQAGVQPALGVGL
Protocol: as §1

human recombinant A2AAR = target: T3, human recombinant A2AAR (Homo sapiens, UniProt P29274); assay: Radioligand binding at human A2AAR ([3H]NECA displacement, CHO cell membranes); conditions: displacement of [3H]NECA, CHO membranes, n = 3–5, means ± standard errors
T3 construct: expressed in transfected cells; membrane preparation
T3 sequence (P29274 whole entry): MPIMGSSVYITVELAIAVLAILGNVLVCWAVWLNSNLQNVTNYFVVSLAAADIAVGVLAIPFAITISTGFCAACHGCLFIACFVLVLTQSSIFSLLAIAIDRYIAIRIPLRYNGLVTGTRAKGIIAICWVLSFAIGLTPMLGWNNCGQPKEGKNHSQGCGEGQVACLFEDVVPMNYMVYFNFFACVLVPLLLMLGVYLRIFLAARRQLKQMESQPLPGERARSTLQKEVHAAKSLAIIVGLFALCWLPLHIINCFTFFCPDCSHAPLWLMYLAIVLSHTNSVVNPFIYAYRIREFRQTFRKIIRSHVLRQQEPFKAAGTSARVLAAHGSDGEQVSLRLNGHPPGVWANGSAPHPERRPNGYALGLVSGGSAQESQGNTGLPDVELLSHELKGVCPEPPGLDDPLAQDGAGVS
Protocol: Most of the compounds were also evaluated at A2BARs in a functional study using the GloSensor cAMP assay. […] In the case of A2BARs, Ki-values were calculated from IC50-values determined by the inhibition of NECA-stimulated adenylyl cyclase activity.
Preparation of membranes: Cell membranes for binding assays were prepared mechanically detaching the cells from the petri and suspending them in a cold hypotonic buffer (5 mM Tris/HCl, 2 mM EDTA, pH 7.4). The cell suspension was homogenized (Ultra-Turrax, 2 × 15 s at maximum speed) and the homogenate centrifuged for 10 min (4 °C) to 1000× g. […] The amount of the protein suspension was determined according to the […] using the BCA Protein Assay Kit (Pierce), frozen in liquid nitrogen, and stored at −80 °C.
as §4, §5

human recombinant A1AR = target: T4, human recombinant A1AR (Homo sapiens, UniProt P30542); assay: Radioligand binding at human A1AR ([3H]CCPA displacement, CHO cell membranes); conditions: displacement of [3H]CCPA, n = 3–5, means ± standard errors
T4 construct: expressed in transfected cells; membrane preparation
T4 sequence (P30542 1-326): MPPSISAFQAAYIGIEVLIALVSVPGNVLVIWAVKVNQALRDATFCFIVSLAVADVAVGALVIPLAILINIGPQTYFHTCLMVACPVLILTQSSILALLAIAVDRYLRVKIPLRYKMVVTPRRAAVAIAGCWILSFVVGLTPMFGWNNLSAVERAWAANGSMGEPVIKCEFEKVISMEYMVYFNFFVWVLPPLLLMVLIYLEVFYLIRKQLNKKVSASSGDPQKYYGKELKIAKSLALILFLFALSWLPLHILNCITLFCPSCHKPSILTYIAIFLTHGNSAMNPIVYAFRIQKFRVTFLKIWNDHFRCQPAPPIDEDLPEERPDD
Protocol: as §1, §2, §3, §4, §5

Row | SMILES | efficacy versus placebo (PD patients) | pKi (human recombinant A3AR) | pKi (A2BAR) | pKi (human recombinant A2AAR) | pKi (human recombinant A1AR) | melting point
1 | COCCOc1ccc(N2CCN(CCn3ncc4c3nc(N)n3nc(-c5ccco5)nc43)CC2)cc1 [Preladenant] | efficacy was not significantly higher than the placebo |  |  |  |  | 
2 | CCn1cnc2c(N)nc(NCCc3ccc(OC)cc3)nc21 [compound 7, 9-Ethyl-N^2-(4-methoxyphenethyl)-9H-purine-2,6-diamine] |  | 4.63 | < 4.52 | 5.84 | 5.23 | 
3 | CCn1c(Br)nc2c(N)nc(NCCc3ccc(OC)cc3)nc21 [compound 8, 8-Bromo-9-ethyl-N^2-(4-methoxyphenethyl)-9H-purine-2,6-diamine] |  | 5.39 | 5.37 | 7.47 | 6.26 | 
4 | CCn1c(Br)nc2c(N)nc(NCCc3ccc(O)cc3)nc21 [compound 9, 4-(2-((6-Amino-9-ethyl-8-bromo-9H-purin-2-yl)amino)ethyl)phenol] |  | 5.42 | 6.41 | 7.36 | 6.39 | 
5 | CCn1c(O)nc2c(N)nc(NCCc3ccc(OC)cc3)nc21 [compound 10] |  | 6.11 | < 4.52 | < 4.52 | 5.86 | 
6 | CCn1c(O)nc2c(N)nc(NCCc3ccc(O)cc3)nc21 [compound 11] |  | < 4.52 | < 4.52 | < 4.52 | 5.15 | 
7 | CCn1c(-c2ccco2)nc2c(N)nc(NCCc3ccc(OC)cc3)nc21 [compound 12, 9-ethyl-8-(furan-2-yl)-N^2-(4-methoxyphenethyl)-9H-purine-2,6-diamine] |  | 7.80 | < 4.52 | 9.00 | 8.59 | 
8 | CSc1nc(N)n2nc(S(C)(=O)=O)nc2n1 [compound 17, 2-(Methylsulfonyl)-5-(methylthio)-[1,2,4]triazolo [1,5-a][1,3,5]triazin-7-amine] |  | 4.83 |  | 5.49 | 5.24 | 
9 | CCOc1nc2nc(SC)nc(N)n2n1 [compound 18, 2-Ethoxy-5-(methylthio)-[1,2,4]triazolo[1,5-a][1,3,5]triazin-7-amine] |  | 5.01 |  | 6.23 | 5.34 | 220 °C (dec.)
10 | CCOc1nc(N)n2nc(OCC)nc2n1 [compound 19, 2,5-diethoxy-[1,2,4]triazolo[1,5-a][1,3,5]triazin-7-amine] |  | 5.32 |  | 5.97 | 5.20 | 
